Measured values as given in patent US20170088822A1 (priority 2015, published 2017).
Values joined by “and” are separate entries in the source; they are usually repeats but may differ in a detail not shown here. Equal entries are not always repeated.

Legend:
BpmFabI [1] = assay type: binding, Burkholderia pseudomallei
[2] = system: drug resistant staphylococci including MRSA and MRSE; details: cited from earlier work
BpmFabI [3] = assay type: biochemical, Burkholderia pseudomallei
S. aureus = details: cited from earlier work

AFN-1252
ΔTm (BpmFabI [1]): 12.76 ± 1.26 °C and 11.61 ± 0.10 °C | Activity against drug resistant staphylococci [2]: potent | Mechanism of inhibition with respect to NADH (Lineweaver-Burk) (BpmFabI [3]): mixed inhibition | Mechanism of inhibition with respect to crotonyl-CoA (Lineweaver-Burk) (BpmFabI [3]): uncompetitive | IC50 (BpmFabI [3]; read-out: IC50 for inhibition of BpmFabI): 9.6 nM | MIC50 (S. aureus): 2 to 120 ng/mL
